Consider nine compounds from patent publication US20100233172A1, “METHODS OF INHIBITING QUIESCENT TUMOR PROLIFERATION” (Bristol-Myers Squibb Company, priority 2008, published 2010).

Some results are limits rather than exact numbers.

The subject of data set [1] is HCT-116 cells. As to the kind of experiment: Clonogenic assay, proliferating (P) versus quiescent (Q) cells. It is filed as cell-based, human. As to conditions: for IC90: Homo sapiens, HCT-116, P cells, 16 hr treatment; for P/Q selectivity: ratio derived from the IC90s on HCT116 cells. As to the method: Tumor Cell Lines. […] Proliferating cultures were set up by plating 3×10^5 cells in 10 ml of RPMI medium in T75 flasks on day 0 and treated with compounds (dissolved in fresh medium) on day 2 or 3. Quiescent cultures were set up by plating 3×10^5 cells in 10 ml of RPMI media in T75 flasks on day 0, changing medium on day 2, and treated with drugs dissolved in spent media on day 6 for 17 hr.
Clonogenic Assay. […] After 10 days incubation at 37° C., colonies were stained with crystal violet.

For a further data set, the target named is T1, Protein phosphatase 1G (Homo sapiens, UniProt O15355).
T1 construct: endogenous in cells; host or cells: ALL cells (quiescent), nuclear and cytoplasmic fractions
T1 sequence (O15355 1-546): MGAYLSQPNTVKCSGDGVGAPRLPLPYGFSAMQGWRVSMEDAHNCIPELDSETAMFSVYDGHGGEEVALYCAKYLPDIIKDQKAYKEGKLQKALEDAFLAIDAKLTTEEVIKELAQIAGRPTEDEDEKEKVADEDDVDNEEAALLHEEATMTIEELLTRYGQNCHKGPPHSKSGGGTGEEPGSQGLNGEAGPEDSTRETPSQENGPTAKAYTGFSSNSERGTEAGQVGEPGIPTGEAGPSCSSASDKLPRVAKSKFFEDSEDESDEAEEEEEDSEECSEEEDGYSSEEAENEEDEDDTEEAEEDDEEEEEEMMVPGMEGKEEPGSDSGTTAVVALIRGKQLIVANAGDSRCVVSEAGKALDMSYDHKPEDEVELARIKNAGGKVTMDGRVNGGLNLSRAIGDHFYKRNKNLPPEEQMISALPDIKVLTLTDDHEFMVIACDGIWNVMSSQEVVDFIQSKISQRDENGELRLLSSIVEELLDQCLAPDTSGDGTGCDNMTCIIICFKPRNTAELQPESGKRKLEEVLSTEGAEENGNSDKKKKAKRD
The data set can be described thus: Affinity capture on monomeric avidin, ALL cell fractions, MS peptide hits. It is filed as binding. As to the method: (§1) An important first step was to establish a source of cells that grew to high density and could remain viable even without replenishing the medium, so that they would be quiescent (Q). After several trials, the inventors settled on ALL cells. Nuclear and cytoplamic fractions were separated by low speed centrifugation after cell lysis with mild detergent. The nuclear fractions were treated with 0.5 M KCl and the chromatin spun out at 100,000 g for one hour. The cytoplasmic fraction was also spun at 100,000 g for one hour, glycerol was added to 20% and fractions frozen at −80 C. […] The fractions were loaded onto 1 ml columns of monomeric avidin beads that had been pretreated with biotin to block accessible sites and washed with pH 2.8 glycine buffer and the incubation buffer (see FIG. 10). Proteins were eluted from both columns with buffer containing 2 mM biotin, 10% TCA precipitated and analyzed on polyacrylamide gels. Bands A and B from the 1 mm gel shown in FIG. 11 were excised out and submitted to the proteomics group for analysis.

The target in data set [2] is T2, Stress induced-phosphoprotein 1 (Hsp70/Hsp90-organizing protein) (Homo sapiens, UniProt P31948).
T2 construct: endogenous in cells; host or cells: ALL cells (quiescent), nuclear and cytoplasmic fractions
T2 sequence (P31948 whole entry): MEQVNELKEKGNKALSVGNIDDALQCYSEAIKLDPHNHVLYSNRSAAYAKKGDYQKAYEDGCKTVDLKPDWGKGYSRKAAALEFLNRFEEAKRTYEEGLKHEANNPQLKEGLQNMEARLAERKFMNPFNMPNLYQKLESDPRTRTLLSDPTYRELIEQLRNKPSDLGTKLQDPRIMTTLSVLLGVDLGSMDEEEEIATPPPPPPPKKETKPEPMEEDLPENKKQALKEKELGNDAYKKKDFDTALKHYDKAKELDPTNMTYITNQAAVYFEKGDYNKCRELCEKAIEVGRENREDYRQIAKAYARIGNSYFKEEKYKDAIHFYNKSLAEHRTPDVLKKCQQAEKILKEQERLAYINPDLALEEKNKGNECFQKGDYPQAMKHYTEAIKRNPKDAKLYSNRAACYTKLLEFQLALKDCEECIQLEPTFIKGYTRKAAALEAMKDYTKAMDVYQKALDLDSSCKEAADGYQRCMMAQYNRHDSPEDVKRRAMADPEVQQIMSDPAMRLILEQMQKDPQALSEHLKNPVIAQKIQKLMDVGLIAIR
The data set is described as above. It is filed as binding. Here is the method: as §1

In data set [3] the target is T3, Programmed cell death (AIF) (Homo sapiens, UniProt O95831).
T3 construct: Two peptides were detected for AIF in band B of the BMS-844472 eluates that were absent from the control eluates; endogenous in cells; host or cells: ALL cells (quiescent), nuclear and cytoplasmic fractions
T3 sequence (O95831 102-613): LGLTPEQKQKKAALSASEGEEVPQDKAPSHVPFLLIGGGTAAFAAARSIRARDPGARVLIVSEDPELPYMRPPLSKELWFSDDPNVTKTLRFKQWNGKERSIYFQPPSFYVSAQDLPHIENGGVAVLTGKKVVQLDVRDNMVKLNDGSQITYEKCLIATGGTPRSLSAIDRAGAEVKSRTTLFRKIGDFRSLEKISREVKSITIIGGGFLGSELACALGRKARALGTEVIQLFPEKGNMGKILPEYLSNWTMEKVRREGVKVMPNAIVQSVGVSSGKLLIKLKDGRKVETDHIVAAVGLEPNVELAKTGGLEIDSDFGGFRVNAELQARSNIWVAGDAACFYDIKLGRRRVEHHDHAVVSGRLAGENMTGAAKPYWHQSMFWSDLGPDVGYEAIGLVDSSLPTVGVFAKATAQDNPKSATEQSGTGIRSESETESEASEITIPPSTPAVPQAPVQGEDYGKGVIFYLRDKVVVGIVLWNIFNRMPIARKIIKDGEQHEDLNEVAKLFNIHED
The description is as above. In kind it is binding. As to the method: as §1

For another data set, the system named is HCT116 xenografts. The data set can be described thus: HCT116 xenografts in nude mice. In kind it is in vivo. As to conditions: at MTD: 600 mg/kg; for Activity in vivo, cures: cures per mice.
Data set [4] concerns cross-linker site in HCT-116 quiescent cell extracts. The data set can be described thus: Cross-linking competition with tritium labeled azido analogue BMS-540864. In kind it is binding, human.
Data set [5] addresses T4, Rab geranylgeranyl transferase (GGTII) (Homo sapiens, UniProt P53611+Q92696).
T4 sequence (Q92696 1-567): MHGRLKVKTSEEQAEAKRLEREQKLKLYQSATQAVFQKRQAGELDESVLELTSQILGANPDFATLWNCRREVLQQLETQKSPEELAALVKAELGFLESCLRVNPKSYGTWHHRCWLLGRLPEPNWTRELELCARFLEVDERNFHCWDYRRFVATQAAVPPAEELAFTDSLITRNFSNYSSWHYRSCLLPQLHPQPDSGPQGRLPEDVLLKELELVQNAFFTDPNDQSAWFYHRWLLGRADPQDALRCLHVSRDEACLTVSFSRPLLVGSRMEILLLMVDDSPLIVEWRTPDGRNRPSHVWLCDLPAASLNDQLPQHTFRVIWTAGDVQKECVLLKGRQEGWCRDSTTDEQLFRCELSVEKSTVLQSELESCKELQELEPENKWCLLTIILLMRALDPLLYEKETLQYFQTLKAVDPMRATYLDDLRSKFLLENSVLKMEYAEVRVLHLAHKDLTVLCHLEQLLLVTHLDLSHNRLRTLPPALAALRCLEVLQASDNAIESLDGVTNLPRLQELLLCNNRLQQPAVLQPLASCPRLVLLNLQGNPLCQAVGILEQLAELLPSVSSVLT
T4 sequence (P53611 1-331): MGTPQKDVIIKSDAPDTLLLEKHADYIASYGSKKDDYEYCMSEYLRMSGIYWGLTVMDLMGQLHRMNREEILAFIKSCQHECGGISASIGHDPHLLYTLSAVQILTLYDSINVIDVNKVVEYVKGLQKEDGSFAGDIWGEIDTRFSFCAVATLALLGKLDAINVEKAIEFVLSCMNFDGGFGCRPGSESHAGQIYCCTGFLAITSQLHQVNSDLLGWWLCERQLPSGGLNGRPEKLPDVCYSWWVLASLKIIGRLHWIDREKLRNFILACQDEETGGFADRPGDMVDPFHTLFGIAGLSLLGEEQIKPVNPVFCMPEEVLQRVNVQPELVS
As to the kind of experiment: Prenyltransferase enzyme assay, RabGGT. In kind it is biochemical. As to the method:
(§2) Enzyme Assays. Prenyltransferases and H-Ras processing inhibition were carried out as described earlier (Hunt et al., Rose et al., Lackner et al., Manne et al., and Lombardo et al).

The target of data set [6] is geranylgeranyl transferase I (GGTI) (Homo sapiens, UniProt P49354+P53609). As to the kind of experiment: Prenyltransferase enzyme assay, GGTI. It is filed as biochemical. Here is the method:
as §2

The test system of data set [7] is HCT-116 cells. The data set can be described thus: Flow cytometry of HCT-116 P and Q cells (BrdU, p85 PARP, activated caspase 3). In kind it is cell-based, human.
Procedure: Untreated HCT-116 cells in P or in Q state (Panel a) were analyzed by flow cytometry. The y axis represents cell numbers and the x axis DNA content. […] The x axis indicates the level of activated caspase while the y axis represents percentage of total fluorescence adjusted to 100%. […] The x axis indicates the level of BrdU incorporation, while the y axis indicates the p85 cleaved PARP cells.
Another data set deals with FT (Homo sapiens, UniProt P49354+P49356). As to the kind of experiment: Prenyltransferase enzyme assay, FT. It is filed as biochemical. As to the method: as §2
Another data set deals with HCT/VM46 xenograft. The data set can be described thus: HCT/VM46 multidrug resistant colon carcinoma xenograft. It is filed as in vivo, mice. The source says:
FIG. 5. […] Panel c. […] Therefore, the consistently observed synergy of the combinations is highly sequence dependent, in vitro and in vivo.

Usually IC90 stands for the concentration at which the effect reaches the 90% level. Lower therefore signals greater potency. With `CC(=O)O[C@H]1C(=O)[C@@]2(C)[C@H]([C@H](OC(=O)c3ccccc3)[C@]3(O)C[C@H](OC(=O)[C@H](O)[C@@H](NC(=O)c4ccccc4)c4ccccc4)C(C)=C1C3(C)C)[C@]1(OC(C)=O)CO[C@@H]1C[C@@H]2O` [paclitaxel], it took 17.8 nM to reach the 90% level in the data set with HCT-116 cells [1] (IC90). Also, in the data set on HCT-116 cells [1] (Q cells), the “Q cell values (IC90)” value is “not reached”.
For the compound `N#Cc1ccc2c(c1)CN(S(=O)(=O)CCCNC(=O)CCCCCNC(=O)CCCC[C@H]1SC[C@H]3NC(=O)N[C@H]31)CCN2Cc1cnc[nH]1` [BMS-236724], the “Peptide Hits Exp 1” value at Protein phosphatase 1G came to 4; in data set [2], 15; in [3], 3. For the same compound, the results for the “Peptide Hits Exp 2” value (at Protein phosphatase 1G; in [2]; in [3]) were 1, 18 and 5, respectively.
Take `O=c1[nH]cc(F)c(=O)[nH]1` [5-fluorouracil]: the “preferential cytotoxicity P versus Q” value in the data set with HCT-116 cells [1] is given as “preferentially cytotoxic to P tumor cells”.
`Cn1cncc1[C@@](N)(c1ccc(Cl)cc1)c1ccc2c(c1)c(-c1cccc(Cl)c1)cc(=O)n2C` [R-115777]: in the data set on HCT-116 cells [1], the P/Q activity ratio was 0.83.
A word on the IC50: it is the concentration that gives 50% inhibition. Lower therefore signals greater potency. On to `Cn1cncc1CN1C[C@@H](Cc2ccccc2)N(S(=O)(=O)c2cccs2)Cc2cc(C#N)ccc21` [BMS-225975], for which, in the data set on HCT116 xenografts, the “Activity in vivo, LCK (log cell kill) when no cures were achieved” value is 0.3 LCK and the “Activity in vivo, cures” value is 0/8. The “competition for the cross-linker site” value in [4] is “able to compete”. In addition, the IC50 in [5] is 12 nM. The compound also yielded an IC50 in data set [6] of 900 nM. Moreover, in the data set on HCT-116 cells [1], the P/Q activity ratio is on record as 0.7 and the P/Q selectivity is 11-100 1.4. Further, the proapoptotic activity entry in the data set with HCT-116 cells [7] was “does not induce apoptosis”.
`Cn1cncc1CN1C[C@@H](Cc2ccccc2)N(S(=O)(=O)c2ccccc2)Cc2cc(C#N)ccc21` [BMS-223999]: the “Activity in vivo, LCK (log cell kill) when no cures were achieved” value in the data set on HCT116 xenografts is listed as 0.4 LCK. The “Activity in vivo, cures” value in the data set with HCT116 xenografts is on record as 0/8. The figures for the IC50 (in data set [5]; in data set [6]; against FT) were 8 nM, 530 nM and 1.1 nM, respectively.
`C/C(=C\c1csc(C)n1)[C@@H]1C[C@@H]2O[C@]2(C)CCC[C@H](C)[C@H](O)[C@@H](C)C(=O)C(C)(C)[C@@H](O)CC(=O)N1` [ixabepilone] gave an IC90 with HCT-116 cells [1] of 1.3 nM. In addition, the “relative sensitivity of P versus Q cells” value in the data set on HCT-116 cells [1] (P cells more sensitive) is above 83 fold. The tumor cures result in the data set with HCT/VM46 xenograft (cured mice of group) is recorded as “did not produce any tumor cures”. In the data set on HCT/VM46 xenograft (mouse, in vivo), the tumor growth delay is given as 1.1 LCK.
`NC(=O)N1CCC(CC(=O)N2CCC([C@H]3c4ncc(Br)cc4CCc4cc(Cl)cc(Br)c43)CC2)CC1` [SCH66336]: the P/Q activity ratio in the data set on HCT-116 cells [1] is 0.74.
Turning to `N#Cc1ccc2c(c1)CN(S(=O)(=O)c1ccccc1)[C@H](Cc1ccccc1)CN2Cc1cnc[nH]1` [BMS-212347], the “Activity in vivo, cures” value in the data set on HCT116 xenografts was 7/8. Moreover, the IC50 in [5] amounted to 41 nM; in data set [6], 1200 nM; against FT, 2.4 nM. The P/Q selectivity with HCT-116 cells [1] was found to be 47.
